# Assay results reported in patent publication US20230027295A1, “FXIA INHIBITORS AND PREPARATION METHOD THEREFOR AND PHARMACEUTICAL USE THEREOF” (Shenzhen Salubris Pharmaceuticals Co., Ltd., priority 2019, published 2023).
# pIC50: −log10 of the molar value.
# Key:
# Rat pharmacokinetics = type: in vivo, SD rats; set-up: AUC: concentration or dose not given beside the values; settings: for AUC / Cmax / Tmax / clearance / half-life / Vd: male, SD, plasma; for Vd: read-out: Vss
# From the text: Example 53: Investigation of the Pharmacokinetic Characteristics of the Compounds of the Present Invention
# SD rats: male, 180-250 g, purchased from Guangdong Medical Laboratory Animal Center. Cynomolgus monkey: male, 4-6 kg, purchased from Guangzhou Chunsheng Biological Research Institute Co., Ltd. Beagle dog: male, 8-12 kg, developed in Kanglong Chemical (Ningbo) New Drug Technology Co., Ltd.
# Reagents: DMSO (dimethyl sulfoxide), PEG-400 (polyethylene glycol 400), normal brine, heparin, acetonitrile, formic acid, and propranolol (internal standard) are commercially available.
# Instrumentation: Thermo Fisher Scientific LC-MS (U300 UPLC, TSQ […] ULTRA triple quadrupole mass spectrometer).
# The compound was weighed and dissolved in DMSO-PEG-400-physiological brine (5:60:35, v/v/v) system. After the rats/monkeys were administered intravenously or by gavage, 200 μL of venous blood was collected at 5 min (not collected when administered by gavage), 15 min, 30 min, 1 h, 2 h, 4 h, 6 h, 8 h, and 24 h in heparinized EP tubes, centrifuged at 12000 rpm for 2 min, and the plasma was frozen at −80° C. for testing. A certain amount of the test substance was precisely weighed and dissolved in DMSO to 1 mg/mL, which was used as a stock solution. An appropriate amount of compound stock solution was accurately pipetted and diluted with acetonitrile to prepare a standard series of solutions. 20 μL of each of the above standard series solutions were accurately pipetted, added with 180 μL of blank plasma, vortexed and mixed to prepare plasma samples equivalent to plasma concentrations of 1, 3, 10, 30, 100, 300, 1000, 3000 and 5000 ng/mL. Two-sample analysis was performed for each concentration to establish a standard curve. 20 μL of plasma was taken out, added with 200 μL of internal standard propranolol (5 ng/mL) in acetonitrile, vortexed and mixed. It was centrifuged at 4000 rpm for 5 min, and the supernatant was collected for LC-MS analysis. LC-MS detection conditions were as follows:
# Chromatographic column: Thermo Scientific […] GOLD C-18 UPLC column, 100*2.1 mm, 1.9 μm.
# Mobile phase: water (0.1% formic acid)-acetonitrile for gradient elution according to the table below.
# After blood drug concentrations being detected by LC-MS, WinNonlin 6.1 software was used to calculate pharmacokinetic parameters by non-compartmental model method.
# human plasma = assay: Anticoagulant effect on human plasma in vitro (APTT determination); type: biochemical; settings: for aPTT EC1.5×: concentration giving APTT of 1.5× blank control; for aPTT EC2×: concentration giving APTT of 2× blank control
# Experimental: Example 51: Determination of the Anticoagulant Effect of the Compounds of the Present Invention on Human Plasma In Vitro
# Plasma: Human blood was collected in a vacuum blood collection tube containing 3.2% sodium citrate (volume ratio 1:9), centrifuged at 3000 rpm for 10 min at room temperature, and the plasma was collected, divided into EP tubes, and stored at −80° C.
# Reagents: APTT assay kit (Activated partial thromboplastin time assay kit, mindray), calcium chloride solution.
# Instrument: coagulation meter (mindray, C2000-A)
# The frozen human plasma in aliquots was thawed at room temperature and mixed well. 10 mM test compound dissolved in 100% DMSO was diluted with 100% DMSO to 1500, 750, 375, 187.5, 93.75, 46.88, 23.44, 11.72 μM. 98 μL of human plasma was added to a 1.5 mL EP tube, then 2 μL of compounds of different concentrations were added, and 2 μL of 100% DMSO was added for the blank group. They were incubated under a water bath at 37° C. for 10 min, and the samples were placed in the corresponding position of the coagulation analyzer to conduct APTT determination of the compounds.
# Curve fitting was performed with GraphPad Prism software, and EC1.5× and EC2× values were calculated respectively, i.e., the concentrations of the compounds corresponding to the APTT of 1.5× and 2× blank control group.
# Human Factor XIa = Human Factor XIa (Homo sapiens, UniProt P03951); assay: Inhibition of human coagulation factor XIa by absorptiometry (substrate S-2366); type: biochemical; settings: 37° C., 20 min incubation, absorbance 405 nm; read-out: hFXIa IC50
# Sequence of Human Factor XIa (P03951 388-625 limits assumed): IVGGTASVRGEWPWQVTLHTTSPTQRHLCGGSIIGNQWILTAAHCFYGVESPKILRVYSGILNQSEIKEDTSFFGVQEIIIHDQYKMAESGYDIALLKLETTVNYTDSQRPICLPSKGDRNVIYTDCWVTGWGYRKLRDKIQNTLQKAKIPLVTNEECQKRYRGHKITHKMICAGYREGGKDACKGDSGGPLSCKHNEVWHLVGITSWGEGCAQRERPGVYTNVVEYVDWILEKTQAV
# Sequence of Human Factor XIa (P03951 19-387 partner limits assumed): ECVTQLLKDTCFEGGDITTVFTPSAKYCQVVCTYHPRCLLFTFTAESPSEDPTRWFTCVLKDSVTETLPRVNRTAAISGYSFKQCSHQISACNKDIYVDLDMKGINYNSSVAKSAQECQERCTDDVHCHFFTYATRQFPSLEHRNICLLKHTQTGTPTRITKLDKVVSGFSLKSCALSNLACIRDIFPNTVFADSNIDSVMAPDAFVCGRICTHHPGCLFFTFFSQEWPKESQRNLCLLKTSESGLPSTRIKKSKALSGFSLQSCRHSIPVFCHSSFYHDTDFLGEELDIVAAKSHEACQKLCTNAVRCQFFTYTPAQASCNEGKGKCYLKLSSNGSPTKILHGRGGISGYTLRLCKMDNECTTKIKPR
# Experimental: Example 50: Detection of the Biological Activity of the Compounds of the Present Invention on the Inhibition of Human Coagulation Factor XIa by Absorptiometry
# Buffer: 145 mM NaCl, 5 mM KCl, 1 mg/mL PEG 8000, 30 mM HEPES, pH 7.4
# 10 mM test compound dissolved in 100% DMSO was diluted with 100% DMSO to […]; 98 μL of FXIa enzyme solution (77.7 ng/mL) was added to each well of a 96-well plate, and 98 μL of buffer was added to the blank wells. 2 μL of compounds of different concentrations were added, and the blank and control wells were added with DMSO instead. They were mixed with a shaker, and incubated at 37° C. for 20 minutes.
# Finally, 100 μL of 800 μM substrate was added to each well, and its absorbance was measured at 405 nm.
pIC50 (Human Factor XIa),Compound,aPTT EC1.5× (human plasma) [µM],aPTT EC2× (human plasma) [µM],further results
–,"O=C(O)c1ccc(NC(=O)[C@H](Cc2ccccc2)n2cnc(-c3cc(Cl)ccc3-n3cc(Cl)nn3)cc2=O)cc1 [Compound A, (S)-4-(2-(4-(5-chloro-2-(4-chloro-1H-1,2,3-triazol-1-yl)phenyl)-6-oxopyrimidin-1(6H)-yl)-3-phenylpropanamido)benzoic acid, reference compound]",–,–,"F (Rat pharmacokinetics; ig): 8.2%; AUC (Rat pharmacokinetics; iv): 1.41 µg·h/mL; Cmax (Rat pharmacokinetics; iv): 4.6 µg/mL; Tmax (Rat pharmacokinetics; iv): 4.98 min; clearance (Rat pharmacokinetics; iv): 0.714 L/h/kg; half-life (Rat pharmacokinetics; iv): 35.3 min; Vd (Rat pharmacokinetics; iv): 0.124 L/kg; AUC (Rat pharmacokinetics; po, ig): 0.576 µg·h/mL; Cmax (Rat pharmacokinetics; po, ig): 0.18 µg/mL; Tmax (Rat pharmacokinetics; po, ig): 30 min; half-life (Rat pharmacokinetics; po, ig): 75.6 min"
–,"CC(=O)c1ccc(Cl)cc1-c1cnn([C@@H](Cc2ccccc2)C(=O)Nc2ccc(C(=O)O)cc2)c(=O)c1 [Example 1, (S)-4-(2-(4-(2-acetyl-5-chlorophenyl)-6-oxopyridazin-1(6H)-yl)-3-phenylpropanamido)benzoic acid]",9.31,>30,–
7.34,COc1nn(C(Cc2ccc(F)cc2)C(=O)Nc2ccc(C(=O)O)cc2)c(=O)cc1-c1cc(Cl)ccc1C(C)=O (stereo not shown) [Example 2],3.455,>15,–
7.29,"COc1nn(C(Cc2ccc(Br)cc2)C(=O)Nc2ccc(C(=O)O)cc2)c(=O)cc1-c1cc(Cl)ccc1C(C)=O (stereo not shown) [Example 3, 4-(2-(4-(2-acetyl-5-chlorophenyl)-3-methoxy-6-oxopyridazin-1(6H)-yl)-3-(4-bromophenyl)propanamido)benzoic acid]",–,–,–
7.49,"COc1nn(C(Cc2ccc(N3CCN(C(C)C)CC3=O)cc2)C(=O)Nc2ccc(C(=O)O)cc2)c(=O)cc1-c1cc(Cl)ccc1C(C)=O (stereo not shown) [Example 4, 4-(2-(4-(2-acetyl-5-chlorophenyl)-3-methoxy-6-oxopyridazin-1(6H)-yl)-3-(4-(4-isopropyl-2-oxopiperazin-1-yl)phenyl)propanamido)benzoic acid]",2.171,11.938,–
8.05,CCOCC1CCN(c2ccc(CC(C(=O)Nc3ccc(C(=O)O)cc3)n3nc(OC)c(-c4cc(Cl)ccc4C(C)=O)cc3=O)cc2)C(=O)C1 (stereo not shown) [Example 5],1.18,4.414,–
–,"CC(=O)c1ccc(Cl)cc1-c1cc(=O)n([C@@H](Cc2ccccc2)C(=O)Nc2ccc(C(=O)O)cc2)nc1OCCO [Example 6, (S)-4-(2-(4-(2-acetyl-5-chlorophenyl)-3-(2-hydroxyethoxy)-6-oxopyridazine-1(6H)-yl)-3-phenylpropanamido)benzoic acid]",0.771,2.892,"F (Rat pharmacokinetics; ig): 1.7%; AUC (Rat pharmacokinetics; iv): 0.604 µg·h/mL; Cmax (Rat pharmacokinetics; iv): 1.37 µg/mL; Tmax (Rat pharmacokinetics; iv): 4.98 min; clearance (Rat pharmacokinetics; iv): 1.66 L/h/kg; half-life (Rat pharmacokinetics; iv): 9.72 min; Vd (Rat pharmacokinetics; iv): 0.432 L/kg; Cmax (Rat pharmacokinetics; po, ig): 0.0305 µg/mL; Tmax (Rat pharmacokinetics; po, ig): 60 min"
7.62,"COc1nn(C(Cc2ccc(C)cc2)C(=O)Nc2ccc(C(=O)O)cc2)c(=O)cc1-c1cc(Cl)ccc1C(C)=O (stereo not shown) [Example 7, 4-(2-(4-(2-acetyl-5-chlorophenyl)-3-methoxy-6-oxopyridazine-1(6H)-yl)-3-(p-tolyl)propanamido)benzoic acid]",2.073,12.58,–
7.52,"COc1nn(C(Cc2cccc(C)c2)C(=O)Nc2ccc(C(=O)O)cc2)c(=O)cc1-c1cc(Cl)ccc1C(C)=O (stereo not shown) [Example 8, 4 (2-(4-(2-acetyl-5-chlorophenyl)-3-methoxy-6-oxopyridazine-1(6H)-yl)-3-(m-tolyl)propanamido)benzoic acid]",2.67,>15,–
7.23,"COc1nn([C@@H](Cc2ccccc2)C(=O)Nc2ccc(C(=O)O)c(F)c2)c(=O)cc1-c1cc(Cl)ccc1C(C)=O [Example 14, (S)-4-(2-(4-(2-acetyl-5-chlorophenyl)-3-methoxy-6-oxopyridazin-1(6H)-yl)-3-phenylpropanamido)-2-fluorobenzoic acid]",–,–,–
7.69,"CC(=O)c1ccc(Cl)cc1-c1cc(=O)n([C@@H](Cc2ccccc2)C(=O)Nc2ccc(C(=O)O)cc2)nc1OCC1CC1 [Example 20, (S)-4-(2-(4-(2-acetyl-5-chlorophenyl)-3-(cyclopropylmethoxy)-6-oxopyridazin-1(6H)-yl)-3-phenylpropanamido)benzoic acid]",2.418,28.32,–
7.79,"CC(=O)c1ccc(Cl)cc1-c1cc(=O)n([C@@H](Cc2ccccc2)C(=O)Nc2ccc(C(=O)O)cc2)nc1OC(C)C [Example 22, (S)-4-(2-(4-(2-acetyl-5-chlorophenyl)-3-isopropoxy-6-oxopyridazin-1(6H)-yl)-3-phenylpropanamido)benzoic acid]",1.346,9.382,–
7.65,"CC(=O)c1ccc(Cl)cc1-c1cc(=O)n([C@@H](Cc2ccccc2)C(=O)Nc2ccc(C(=O)O)cc2)nc1OCC(F)(F)F [Example 23, (S)-4-(2-(4-(2-acetyl-5-chlorophenyl)-6-oxo-3-(2,2,2-trifluoroethoxy)pyridazine-1(6H)-yl)-3-phenylpropanamido)benzoic acid]",4.236,>15,–
7.10,"COc1nn([C@@H](Cc2ccccc2)C(=O)Nc2ccc(C(=O)O)c(Cl)c2)c(=O)cc1-c1cc(Cl)ccc1C(C)=O [Example 27, (S)-4-(2-(4-(2-acetyl-5-chlorophenyl)-3-methoxy-6-oxopyridazin-1(6H)-yl)-3-phenylpropanamido)-2-chlorobenzoic acid]",–,–,–
6.66,"COc1cc(NC(=O)[C@H](Cc2ccccc2)n2nc(OC)c(-c3cc(Cl)ccc3C(C)=O)cc2=O)ccc1C(=O)O [Example 28, (S)-4-(2-(4-(2-acetyl-5-chlorophenyl)-3-methoxy-6-oxopyridazin-1(6H)-yl)-3-phenylpropan amido)-2-methoxybenzoic acid]",–,–,–
7.20,"COc1nn([C@@H](Cc2ccccc2)C(=O)Nc2ccc(C(=O)O)c(O)c2)c(=O)cc1-c1cc(Cl)ccc1C(C)=O [Example 29, (S)-4-(2-(4-(2-acetyl-5-chlorophenyl)-3-methoxy-6-oxopyridazin-1(6H)-yl)-3-phenylpropan amido)-2-hydroxybenzoic acid]",–,–,–
6.86,"CC(=O)c1ccc(Cl)cc1-c1cc(=O)n([C@@H](Cc2ccccc2)C(=O)Nc2ccc(C(=O)O)cc2)nc1O [Example 34, (S)-4-(2-(4-(2-acetyl-5-chlorophenyl)-3-hydroxy-6-oxopyridazin-1(6H)-yl)-3-phenylpropanamido)benzoic acid]",–,–,–
5.85,"O=C(O)c1ccc(NC(=O)[C@H](Cc2ccccc2)n2ncc(-c3c(F)ccc(Cl)c3F)cc2=O)cc1 [Example 42, (S)-4-(2-(4-(3-chloro-2,6-difluorophenyl)-6-oxopyridazin-1(6H)-yl)-3-phenylpropanamido)benzoic acid]",–,–,–
